AC50 data for three compounds are collected here from ChEMBL document CHEMBL5291721, “A preclinical secondary pharmacology resource illuminates target-adverse drug reaction associations of marketed drugs” (Nat Commun, 2023).

Among the targets are D(3) dopamine receptor (Homo sapiens, UniProt P35462); Melanocortin receptor 4 (Homo sapiens, UniProt P32245); Melanocortin receptor 3 (Homo sapiens, UniProt P41968); Histamine H1 receptor (Homo sapiens, UniProt P35367); Mu-type opioid receptor (Homo sapiens, UniProt P35372).
The target in experiment [1] is 3',5'-cyclic-AMP phosphodiesterase 4D (Homo sapiens, UniProt Q08499). Format: functional.
For experiment [2], the target named is T1, Cannabinoid receptor 1 (Homo sapiens, UniProt P21554).
The target of experiment [3] is Beta-2 adrenergic receptor (Homo sapiens, UniProt P07550). Format: functional, cell-based.
Experiment [4] deals with T2, Type-1 angiotensin II receptor (Homo sapiens, UniProt P30556).
T2 sequence (P30556 whole entry): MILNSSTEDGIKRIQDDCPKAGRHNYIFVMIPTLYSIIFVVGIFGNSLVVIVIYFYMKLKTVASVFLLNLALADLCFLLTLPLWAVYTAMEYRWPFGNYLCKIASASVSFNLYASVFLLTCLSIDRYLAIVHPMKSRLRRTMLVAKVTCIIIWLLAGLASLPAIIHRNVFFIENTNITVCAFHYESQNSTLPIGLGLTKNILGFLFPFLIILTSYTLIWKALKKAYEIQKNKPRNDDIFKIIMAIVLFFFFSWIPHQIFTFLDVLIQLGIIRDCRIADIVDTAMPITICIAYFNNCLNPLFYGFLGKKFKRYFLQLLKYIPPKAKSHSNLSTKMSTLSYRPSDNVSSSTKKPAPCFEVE

Experiment [5] addresses T1, Cannabinoid receptor 1. Format: functional, cell-based.
In a further experiment the target is T3, Endothelin-1 receptor (Homo sapiens, UniProt P25101).
T3 sequence (P25101 whole entry): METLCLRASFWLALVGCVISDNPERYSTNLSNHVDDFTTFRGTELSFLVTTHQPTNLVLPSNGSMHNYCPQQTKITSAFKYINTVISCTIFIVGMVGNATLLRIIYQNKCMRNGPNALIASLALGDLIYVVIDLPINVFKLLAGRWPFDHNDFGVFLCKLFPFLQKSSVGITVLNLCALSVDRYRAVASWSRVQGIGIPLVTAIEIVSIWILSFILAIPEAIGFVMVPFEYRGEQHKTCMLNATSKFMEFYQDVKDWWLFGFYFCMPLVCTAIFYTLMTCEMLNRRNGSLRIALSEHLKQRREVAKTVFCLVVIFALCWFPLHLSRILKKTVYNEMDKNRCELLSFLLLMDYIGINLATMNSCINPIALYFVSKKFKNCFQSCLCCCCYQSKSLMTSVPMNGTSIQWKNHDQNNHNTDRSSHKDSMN

The target of experiment [6] is T4, Muscarinic acetylcholine receptor M2 (Homo sapiens, UniProt P08172).
T4 sequence (P08172 whole entry): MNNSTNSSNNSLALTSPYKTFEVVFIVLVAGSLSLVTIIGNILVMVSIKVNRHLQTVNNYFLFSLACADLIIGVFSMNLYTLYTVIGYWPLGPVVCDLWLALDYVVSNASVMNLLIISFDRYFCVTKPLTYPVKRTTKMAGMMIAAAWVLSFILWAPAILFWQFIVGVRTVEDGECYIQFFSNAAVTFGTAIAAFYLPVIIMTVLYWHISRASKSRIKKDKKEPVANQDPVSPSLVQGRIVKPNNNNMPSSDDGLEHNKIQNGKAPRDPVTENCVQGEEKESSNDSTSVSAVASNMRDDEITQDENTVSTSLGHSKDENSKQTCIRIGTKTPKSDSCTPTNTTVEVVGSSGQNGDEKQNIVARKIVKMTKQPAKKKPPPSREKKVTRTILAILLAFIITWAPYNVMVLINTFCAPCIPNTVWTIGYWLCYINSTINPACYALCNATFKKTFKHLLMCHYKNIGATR
Format: functional, cell-based.

The next experiment concerns the target T5, Glucocorticoid receptor (Homo sapiens, UniProt P04150).
T5 sequence (P04150 whole entry): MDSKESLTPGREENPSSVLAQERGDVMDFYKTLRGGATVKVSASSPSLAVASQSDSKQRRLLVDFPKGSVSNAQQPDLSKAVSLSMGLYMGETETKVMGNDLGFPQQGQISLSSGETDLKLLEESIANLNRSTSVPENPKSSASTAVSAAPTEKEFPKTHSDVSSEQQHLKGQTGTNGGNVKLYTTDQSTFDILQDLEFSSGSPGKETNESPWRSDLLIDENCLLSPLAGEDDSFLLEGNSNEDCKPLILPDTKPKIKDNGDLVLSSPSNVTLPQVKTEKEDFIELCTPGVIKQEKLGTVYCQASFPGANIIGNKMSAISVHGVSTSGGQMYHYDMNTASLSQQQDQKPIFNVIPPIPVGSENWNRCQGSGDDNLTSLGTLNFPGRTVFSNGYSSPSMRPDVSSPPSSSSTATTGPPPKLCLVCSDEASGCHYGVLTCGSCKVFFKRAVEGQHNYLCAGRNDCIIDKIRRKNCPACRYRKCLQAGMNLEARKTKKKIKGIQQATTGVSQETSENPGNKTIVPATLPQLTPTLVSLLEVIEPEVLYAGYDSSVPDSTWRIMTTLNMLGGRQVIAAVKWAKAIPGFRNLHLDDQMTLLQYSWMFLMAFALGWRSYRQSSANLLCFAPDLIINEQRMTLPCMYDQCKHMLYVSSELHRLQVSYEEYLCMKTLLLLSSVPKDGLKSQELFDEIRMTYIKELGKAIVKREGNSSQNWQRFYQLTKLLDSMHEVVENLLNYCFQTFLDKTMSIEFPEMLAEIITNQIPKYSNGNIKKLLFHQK

The target of experiment [7] is 5-hydroxytryptamine receptor 2A (Homo sapiens, UniProt P28223). Format: functional, cell-based.
Experiment [8] addresses Voltage-gated inwardly rectifying potassium channel KCNH2 (Homo sapiens, UniProt Q12809). In kind it is functional. The following applies: read-out: AC50.
The next experiment addresses D(1A) dopamine receptor (Homo sapiens, UniProt P21728). Format: functional, cell-based.
Note: assay procedure not described here.

Chain of Beta-2 adrenergic receptor (P07550 whole entry): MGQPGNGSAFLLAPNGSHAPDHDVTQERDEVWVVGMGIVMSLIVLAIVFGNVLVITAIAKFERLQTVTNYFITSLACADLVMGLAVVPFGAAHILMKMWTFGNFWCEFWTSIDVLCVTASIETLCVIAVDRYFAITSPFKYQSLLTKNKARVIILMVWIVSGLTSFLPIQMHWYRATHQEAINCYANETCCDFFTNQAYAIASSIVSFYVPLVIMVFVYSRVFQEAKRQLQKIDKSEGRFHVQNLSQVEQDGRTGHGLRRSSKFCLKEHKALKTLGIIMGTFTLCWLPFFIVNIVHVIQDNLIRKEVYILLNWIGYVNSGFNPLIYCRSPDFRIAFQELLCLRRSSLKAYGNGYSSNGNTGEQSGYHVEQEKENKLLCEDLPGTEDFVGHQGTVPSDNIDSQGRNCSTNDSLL
Chain of 5-hydroxytryptamine receptor 2A (P28223 whole entry): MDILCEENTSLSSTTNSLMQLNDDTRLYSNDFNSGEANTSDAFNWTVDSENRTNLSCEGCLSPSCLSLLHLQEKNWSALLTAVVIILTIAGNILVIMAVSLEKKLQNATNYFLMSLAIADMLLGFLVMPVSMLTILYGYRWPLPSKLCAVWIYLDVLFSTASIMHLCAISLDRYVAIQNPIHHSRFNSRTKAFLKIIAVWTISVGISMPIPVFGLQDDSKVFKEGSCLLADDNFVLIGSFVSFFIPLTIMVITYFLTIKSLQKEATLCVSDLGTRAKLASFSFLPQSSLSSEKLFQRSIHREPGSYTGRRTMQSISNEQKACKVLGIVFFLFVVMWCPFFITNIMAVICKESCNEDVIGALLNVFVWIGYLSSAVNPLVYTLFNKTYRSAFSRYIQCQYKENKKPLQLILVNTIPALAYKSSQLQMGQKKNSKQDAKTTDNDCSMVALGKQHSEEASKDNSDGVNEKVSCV
Chain of Melanocortin receptor 4 (P32245 whole entry): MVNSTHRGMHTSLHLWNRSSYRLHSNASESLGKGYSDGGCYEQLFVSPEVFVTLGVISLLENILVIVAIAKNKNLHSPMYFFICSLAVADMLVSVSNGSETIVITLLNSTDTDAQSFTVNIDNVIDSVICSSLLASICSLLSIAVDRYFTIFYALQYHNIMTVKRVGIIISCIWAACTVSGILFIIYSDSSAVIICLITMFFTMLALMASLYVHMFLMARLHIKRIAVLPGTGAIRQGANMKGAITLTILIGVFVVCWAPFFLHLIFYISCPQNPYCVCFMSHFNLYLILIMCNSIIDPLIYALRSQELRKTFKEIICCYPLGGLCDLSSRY
Chain of 3',5'-cyclic-AMP phosphodiesterase 4D (Q08499 whole entry): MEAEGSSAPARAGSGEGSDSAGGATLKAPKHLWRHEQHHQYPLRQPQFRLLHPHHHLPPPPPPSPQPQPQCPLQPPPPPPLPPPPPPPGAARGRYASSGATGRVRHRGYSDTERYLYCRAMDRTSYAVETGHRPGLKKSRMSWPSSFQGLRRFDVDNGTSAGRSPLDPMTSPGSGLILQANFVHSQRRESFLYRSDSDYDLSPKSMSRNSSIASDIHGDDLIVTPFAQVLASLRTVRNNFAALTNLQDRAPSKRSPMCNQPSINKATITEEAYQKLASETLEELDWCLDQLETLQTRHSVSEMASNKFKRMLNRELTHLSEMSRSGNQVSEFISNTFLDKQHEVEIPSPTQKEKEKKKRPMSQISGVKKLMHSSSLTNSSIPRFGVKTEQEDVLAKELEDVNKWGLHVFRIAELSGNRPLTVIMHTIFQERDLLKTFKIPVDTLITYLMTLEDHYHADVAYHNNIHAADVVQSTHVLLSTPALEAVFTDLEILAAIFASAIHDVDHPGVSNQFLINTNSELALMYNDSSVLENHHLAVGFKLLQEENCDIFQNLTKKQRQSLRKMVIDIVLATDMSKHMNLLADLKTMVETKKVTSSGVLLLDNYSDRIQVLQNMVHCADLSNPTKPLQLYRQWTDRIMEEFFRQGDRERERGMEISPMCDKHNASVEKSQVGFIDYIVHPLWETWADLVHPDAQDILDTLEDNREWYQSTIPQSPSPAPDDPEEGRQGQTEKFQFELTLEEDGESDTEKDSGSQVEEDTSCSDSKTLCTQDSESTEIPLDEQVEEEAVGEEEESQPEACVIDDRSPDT
Chain of Histamine H1 receptor (P35367 whole entry): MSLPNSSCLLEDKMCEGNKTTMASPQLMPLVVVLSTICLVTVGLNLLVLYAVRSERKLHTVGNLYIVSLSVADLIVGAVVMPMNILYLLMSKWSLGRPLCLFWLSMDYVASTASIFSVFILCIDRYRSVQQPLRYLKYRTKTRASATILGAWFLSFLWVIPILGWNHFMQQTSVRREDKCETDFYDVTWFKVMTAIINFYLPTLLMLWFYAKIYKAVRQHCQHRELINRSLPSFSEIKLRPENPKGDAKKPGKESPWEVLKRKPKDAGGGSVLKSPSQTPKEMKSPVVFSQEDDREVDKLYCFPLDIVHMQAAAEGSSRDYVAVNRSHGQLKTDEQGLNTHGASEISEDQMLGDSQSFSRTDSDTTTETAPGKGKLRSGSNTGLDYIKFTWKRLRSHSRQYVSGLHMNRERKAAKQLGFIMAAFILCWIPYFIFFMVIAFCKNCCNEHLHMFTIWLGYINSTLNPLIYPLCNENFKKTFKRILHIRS
T1 sequence (P21554 whole entry): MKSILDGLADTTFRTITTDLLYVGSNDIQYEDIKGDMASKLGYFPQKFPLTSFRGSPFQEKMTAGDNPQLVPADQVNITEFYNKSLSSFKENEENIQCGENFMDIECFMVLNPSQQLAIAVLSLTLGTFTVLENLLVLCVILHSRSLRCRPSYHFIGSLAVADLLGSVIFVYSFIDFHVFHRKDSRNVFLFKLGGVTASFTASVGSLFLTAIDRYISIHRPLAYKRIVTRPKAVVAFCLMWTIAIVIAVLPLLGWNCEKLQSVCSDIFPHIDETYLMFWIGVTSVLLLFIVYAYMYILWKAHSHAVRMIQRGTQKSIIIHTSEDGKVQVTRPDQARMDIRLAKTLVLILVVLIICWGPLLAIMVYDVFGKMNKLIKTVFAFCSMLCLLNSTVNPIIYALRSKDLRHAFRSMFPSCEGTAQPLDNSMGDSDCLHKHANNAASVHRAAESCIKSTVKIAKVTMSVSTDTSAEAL
Chain of Melanocortin receptor 3 (P41968 whole entry): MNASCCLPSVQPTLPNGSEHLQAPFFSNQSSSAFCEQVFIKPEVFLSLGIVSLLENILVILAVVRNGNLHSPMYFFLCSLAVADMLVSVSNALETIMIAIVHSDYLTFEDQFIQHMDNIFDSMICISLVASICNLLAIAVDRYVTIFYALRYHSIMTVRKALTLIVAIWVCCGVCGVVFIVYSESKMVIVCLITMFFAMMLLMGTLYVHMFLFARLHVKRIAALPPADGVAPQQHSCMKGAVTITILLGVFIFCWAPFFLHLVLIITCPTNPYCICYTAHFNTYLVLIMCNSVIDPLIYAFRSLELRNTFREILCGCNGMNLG
Chain of Mu-type opioid receptor (P35372 whole entry): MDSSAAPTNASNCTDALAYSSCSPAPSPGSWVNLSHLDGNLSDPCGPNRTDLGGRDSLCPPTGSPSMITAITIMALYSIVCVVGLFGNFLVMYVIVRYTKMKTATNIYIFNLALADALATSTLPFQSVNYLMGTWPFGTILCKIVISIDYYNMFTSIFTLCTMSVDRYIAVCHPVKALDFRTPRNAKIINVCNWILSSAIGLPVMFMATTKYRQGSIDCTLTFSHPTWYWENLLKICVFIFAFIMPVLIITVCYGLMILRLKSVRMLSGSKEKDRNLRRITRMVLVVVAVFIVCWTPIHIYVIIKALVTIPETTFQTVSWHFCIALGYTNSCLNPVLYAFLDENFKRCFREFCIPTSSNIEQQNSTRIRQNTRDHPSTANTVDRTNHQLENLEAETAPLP
Chain of D(3) dopamine receptor (P35462 whole entry): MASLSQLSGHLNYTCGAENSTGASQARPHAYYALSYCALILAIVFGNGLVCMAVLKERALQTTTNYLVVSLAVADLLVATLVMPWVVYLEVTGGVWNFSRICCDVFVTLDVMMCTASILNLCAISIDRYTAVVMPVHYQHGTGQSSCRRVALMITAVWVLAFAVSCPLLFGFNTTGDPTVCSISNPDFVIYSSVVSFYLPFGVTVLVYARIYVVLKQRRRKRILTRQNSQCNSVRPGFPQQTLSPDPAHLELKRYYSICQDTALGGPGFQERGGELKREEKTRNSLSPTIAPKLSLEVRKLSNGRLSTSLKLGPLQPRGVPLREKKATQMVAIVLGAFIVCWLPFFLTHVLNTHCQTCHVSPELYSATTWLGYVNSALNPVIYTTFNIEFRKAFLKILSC
Chain of D(1A) dopamine receptor (P21728 whole entry): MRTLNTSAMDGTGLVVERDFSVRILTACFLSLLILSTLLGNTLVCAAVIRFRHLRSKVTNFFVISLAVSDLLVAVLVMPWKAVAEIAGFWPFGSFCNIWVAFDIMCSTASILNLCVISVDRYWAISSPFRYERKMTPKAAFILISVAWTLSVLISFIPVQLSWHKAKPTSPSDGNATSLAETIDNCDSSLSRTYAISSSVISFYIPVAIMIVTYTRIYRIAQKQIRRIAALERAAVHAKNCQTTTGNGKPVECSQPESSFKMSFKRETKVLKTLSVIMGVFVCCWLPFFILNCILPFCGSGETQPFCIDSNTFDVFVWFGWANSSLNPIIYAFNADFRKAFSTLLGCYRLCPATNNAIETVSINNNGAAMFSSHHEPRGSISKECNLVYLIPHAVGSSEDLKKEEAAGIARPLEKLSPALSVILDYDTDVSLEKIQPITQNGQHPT

Take `CN(C)C(=O)OC1N=C(c2ccccc2)c2cc(Cl)ccc2N(C)C1=O` (centres undefined) [CAMAZEPAM]: the AC50 is 4.3 µM in [1]; over 10 µM at Cannabinoid receptor 1 [2]; over 30 µM in experiment [3]; over 30 µM in [4]; over 30 µM at Cannabinoid receptor 1 [5]; over 10 µM at D(3) dopamine receptor. Moreover, the AC50 on Melanocortin receptor 4 was over 30 µM; on Endothelin-1 receptor, over 30 µM; in experiment [6], over 10 µM; on Melanocortin receptor 3 it was over 30 µM; at Histamine H1 receptor, over 10 µM; at Glucocorticoid receptor, over 30 µM. The AC50 is over 30 µM in experiment [7], over 10 µM on Mu-type opioid receptor, over 30 µM in [8] and over 10 µM on D(1A) dopamine receptor.

As to `Cc1ccc(-c2nc3ccc(C)cn3c2CC(=O)N(C)C)cc1` [ZOLPIDEM], the AC50 (in experiment [1]; at Cannabinoid receptor 1 [2]; in experiment [3]; in experiment [4]; at Cannabinoid receptor 1 [5]; at D(3) dopamine receptor) was over 30 µM in each case. The AC50 (at Melanocortin receptor 4; on Endothelin-1 receptor; in [6]; at Melanocortin receptor 3; on Histamine H1 receptor; at Glucocorticoid receptor) was over 30 µM in each case. Further, the figures for the AC50 (in experiment [7]; at Mu-type opioid receptor; on D(1A) dopamine receptor) were over 30 µM, over 10 µM and over 30 µM, respectively.

With `CN1CCc2cccc3c2[C@H]1Cc1ccc(O)c(O)c1-3` [APOMORPHINE], the AC50 is 2.2 µM in [1]; over 10 µM at Cannabinoid receptor 1 [2]; over 30 µM in experiment [3]; over 30 µM in experiment [4]; over 30 µM on Cannabinoid receptor 1 [5]; over 30 µM on Melanocortin receptor 4. For the same compound, the AC50 at Endothelin-1 receptor was over 30 µM; in experiment [6], over 10 µM; at Melanocortin receptor 3 it was over 30 µM; at Histamine H1 receptor, 15 µM; on Glucocorticoid receptor, over 30 µM; in experiment [7], over 30 µM. Moreover, the AC50 at Mu-type opioid receptor is over 30 µM.

One may read the AC50 as the concentration giving half of the maximal activity seen.
